Like-named read-outs stand apart in the source and are kept apart here.
Legend:
[1] = Pyrotinib plasma pharmacokinetics with/without montmorillonite powder (Group A), LC-MS/MS, NCA; assay type: in vivo, healthy volunteers; details: for Tmax: median (minimum, maximum); for Vd/F: read-out: Vz/F
Method: (§1) On day 1, all subjects received a single oral dose of 400 mg pyrotinib after breakfast. […] Subjects in Group B received a single oral dose of 400 mg pyrotinib and 4 mg loperamide after breakfast on day 9, followed by additional doses of 2 mg loperamide at 2 h and 4 h post-administration.
(§2) Blood samples were collected at baseline (within 30 min prior to drug administration) and at 1, 2, 3, 4, 5, 6, 7, 8, 10, 12, 24, 48, 72, and 96 h following pyrotinib administration on days 1 and 9 to measure the concentration of pyrotinib in the plasma. After completion of the study on day 13, subjects underwent a final examination and were subsequently discharged. A safety follow-up was conducted between days 16 and 19.
(§3) The analysis of plasma samples for pyrotinib was based on a validated and sensitive liquid chromatography-tandem mass spectrometry (LC-MS/MS) method with high specificity. The plasma samples were stored at −70°C and analyzed within a stability period of 176 days. The calibration range for the standard curve was between 1.00 and 500 ng/mL, and the regression equation used linear fitting with a weighting factor of W = 1/X^2 (bioanalysis method validation report, data on file). In each batch of analysis, the number of quality control (QC) samples accounted for more than 5% of the unknown samples in that batch. […] Representative chromatograms of pyrotinib at the LLOQ (lower limit of quantification) and in a plasma sample can be found in the Supplementary Material.
(§4) The individual pharmacokinetic parameters of pyrotinib would be calculated using non-compartmental analysis (NCA) and summarized by groups and combination status with descriptive statistics. To estimate the difference in the least-square means between the combination treatment and pyrotinib alone, a mixed-effects model was used to analyze the natural log-transformed pharmacokinetic parameters of pyrotinib (including AUC0- ∞ , AUC0-t, and Cmax) for each group. The model included treatment as a fixed effect and subject as a random effect. Results were exponentiated to obtain geometric least-squares means, geometric mean ratios, and corresponding 90% confidence intervals (CIs) on the original scale. […] To account for a 10% dropout rate, 18 subjects were planned for each of Groups A and B, resulting in a total of 36 subjects.

[2] = Pyrotinib plasma pharmacokinetics with/without loperamide (Group B), LC-MS/MS, NCA; assay type: in vivo, healthy volunteers
Method: as §1, §2, §3, §4

[3] = Safety analysis (TEAEs), Group A; assay type: in vivo, healthy volunteers
Method: (§5) As summarized in Figure 1, the participants were divided into two groups: […] On day 1, all subjects received a single oral dose of 400 mg pyrotinib after breakfast. […] Subjects were instructed to have a light meal the night before the administration of the drug and to fast for 10 h overnight. Safety assessments included adverse events (AEs), physical examinations, vital signs, 12-lead ECGs, and clinical laboratory tests (hematology, serum chemistry, and urinalysis).

[4] = Safety analysis (TEAEs), Group B; assay type: in vivo, healthy volunteers
Method: as §5

[5] = parameters: method as in data on file; details: healthy volunteers, ref data on file, cited from earlier work
[6] = system: untreated HER2-positive metastatic breast cancer; details: cited from earlier work
CYP3A4 [7] = assay: Calculated R1 / R1,gut for reversible CYP3A4 inhibition by loperamide
CYP3A4 [8] = system: CYP3A4; parameters: method as in Marechal et al., 2006; details: CYP3A4 inhibition; ref Marechal et al., 2006; cited from earlier work
[9] = cited from earlier work; for bioavailability: oral loperamide, significant first-pass effect, ref IMODIUM package insert (2016)
albumin = details: of loperamide available in blood; cited from earlier work
[10] = combination with montmorillonite powder/pyrotinib alone
[11] = human, plasma, oral, Group A, pyrotinib alone, 400 mg, day 1, geometric mean (geometric CV)
[12] = with montmorillonite powder 2 h after pyrotinib vs. pyrotinib alone
[13] = combination with loperamide/pyrotinib alone
[14] = with loperamide vs. pyrotinib alone

For `CCOc1cc2ncc(C#N)c(Nc3ccc(OCc4ccccn4)c(Cl)c3)c2cc1NC(=O)/C=C/[C@H]1CCCN1C` [Pyrotinib], the CL/F ([1]; Group A, 400 mg pyrotinib then 3 g montmorillonite powder 2 h later, day 9, geometric mean (geometric CV)) was 315 L/h, the CL/F ([1]; Group A, pyrotinib alone, 400 mg, day 1, geometric mean (geometric CV)) was 213 L/h and the CL/F ([1]; Group A, pyrotinib alone, 400 mg, day 1, geometric mean (geometric CV), listed as Pyrtonib) was 213 (40.5) L/h. The “geometric mean ratio (90% CI), AUC0-t” value [1, 10] was 0.669 (0.601, 0.745), the “geometric mean ratio (90% CI), AUC0-∞” value [1, 10] was 0.676 (0.610, 0.749) and the “geometric mean ratio (90% CI), Cmax” value [1, 10] was 0.733 (0.670, 0.803). The half-life ([1]; human, plasma, oral) was 16.3 h, the AUC(0-inf) ([1]; human, plasma, oral, 400 mg, Group A, pyrotinib alone, 400 mg, day 1, geometric mean (geometric CV), read-out: AUC0-∞) was 1880 ng·h/mL and the Tmax ([1]; human, plasma, oral, 400 mg, Group A, pyrotinib alone, 400 mg, day 1) was 5 h. The AUC(0-t) ([1]; human, plasma, oral, 400 mg, Group A, pyrotinib alone, mixed-effects model, read-out: Geometric least-square mean AUC0-t) was 1830 ng·h/mL, the AUC(0-inf) ([1]; human, plasma, oral, 400 mg, Group A, pyrotinib alone, mixed-effects model, read-out: Geometric least-square mean AUC0-∞) was 1880 ng·h/mL and the AUC(0-inf) ([1]; human, plasma, oral, Group A, 400 mg pyrotinib then 3 g montmorillonite powder 2 h later, day 9, geometric mean (geometric CV), read-out: AUC0-∞) was 1270 ng·h/mL. It also gave a Tmax ([1]; human, plasma, oral, Group A, 400 mg pyrotinib then 3 g montmorillonite powder 2 h later, day 9) of 3.51 h, a decrease in Tmax ([1]; human, plasma, oral, with montmorillonite powder vs. pyrotinib alone, read-out: time to maximum concentration earlier by) of 1.5 h and a Cmax [1, 11] of 105 ng/mL. It also gave a Vd/F [1, 11] of 4580 L, a half-life ([1]; human, plasma, oral, Group A, pyrotinib alone, 400 mg, day 1, mean (SD)) of 15.5 h and a Vd/F ([1]; human, plasma, oral) of 7120 L. For the same compound, the AUC(0-t) ([1]; human, Group A, pyrotinib alone, single oral 400 mg after breakfast, day 1, plasma pyrotinib, geometric mean (geometric CV), read-out: AUC0-t) was 1840 ng·h/mL, the “reduction in exposure of pyrotinib” value ([1]; montmorillonite powder at 2-h interval) was 33% and the “decrease in AUC0-t of pyrotinib” value [1, 12] was 33.1%. The “decrease in AUC0-∞ of pyrotinib” value [1, 12] was 32.4%, the “decrease in Cmax of pyrotinib” value [1, 12] was 26.7% and the “change in t1/2 of pyrotinib” value ([1]; with montmorillonite powder vs. pyrotinib alone) was “no significant change”. For the same compound, the CL/F ([2]; Group B, 400 mg pyrotinib + loperamide 4+2+2 mg, day 9, geometric mean (geometric CV)) was 160 L/h, the CL/F ([2]; Group B, pyrotinib alone, 400 mg, day 1, geometric mean (geometric CV)) was 189 L/h and the CL/F ([2]; Group B, pyrotinib alone, 400 mg, day 1, geometric mean (geometric CV), listed as Pyrtonib) was 189 (26.7) L/h. The “geometric mean ratio (90% CI), AUC0-t” value [2, 13] was 1.18 (1.08, 1.28), the “geometric mean ratio (90% CI), AUC0-∞” value [2, 13] was 1.19 (1.09, 1.29) and the “geometric mean ratio (90% CI), Cmax” value [2, 13] was 0.946 (0.867, 1.03). It also gave an AUC(0-t) ([2]; human, oral, Group B, 400 mg pyrotinib + 4 mg loperamide, then 2 mg loperamide at 2 and 4 h, day 9, plasma pyrotinib, geometric mean (geometric CV), read-out: AUC0-t) of 2430 ng·h/mL, an AUC(0-inf) ([2]; human, plasma, oral, 400 mg, Group B, pyrotinib alone, 400 mg, day 1, geometric mean (geometric CV), read-out: AUC0-∞) of 2110 ng·h/mL and an AUC(0-t) ([2]; human, plasma, oral, 400 mg, Group B, pyrotinib alone, mixed-effects model, read-out: Geometric least-square mean AUC0-t) of 2060 ng·h/mL. The AUC(0-inf) ([2]; human, plasma, oral, 400 mg, Group B, pyrotinib alone, mixed-effects model, read-out: Geometric least-square mean AUC0-∞) was 2110 ng·h/mL, the AUC(0-inf) ([2]; human, plasma, oral, Group B, 400 mg pyrotinib + loperamide 4+2+2 mg, day 9, geometric mean (geometric CV), read-out: AUC0-∞) was 2500 ng·h/mL and the Cmax ([2]; human, plasma, oral, Group B, pyrotinib alone, 400 mg, day 1, geometric mean (geometric CV)) was 124 ng/mL. It also gave a Vd/F ([2]; human, plasma, oral, Group B, pyrotinib alone, 400 mg, day 1, geometric mean (geometric CV), read-out: Vz/F) of 4520 L, a half-life ([2]; human, plasma, oral, Group B, pyrotinib alone, 400 mg, day 1, mean (SD)) of 17.3 h and a Tmax ([2]; human, plasma, oral, Group B, pyrotinib alone, 400 mg, day 1, median (minimum, maximum)) of 4.98 h. For the same compound, the AUC(0-t) ([2]; human, Group B, pyrotinib alone, single oral 400 mg after breakfast, day 1, plasma pyrotinib, geometric mean (geometric CV), read-out: AUC0-t) was 2060 ng·h/mL, the “change in median Tmax of pyrotinib” value [2, 14] was “no significant change” and the “decrease in Cmax of pyrotinib” value [2, 14] was “approximately 5.4%”. The “increase in AUC0-t of pyrotinib” value [2, 14] was “approximately 18%”, the “increase in AUC0-∞ of pyrotinib” value [2, 14] was roughly 19% and the incidence of hypertriglyceridemia ([3]; Group A) was 11.1%. The serious adverse events ([3]; Group A) was “No serious adverse events”, the “number of treatment-emergent adverse events (TEAEs)” value ([3]; Group A (N = 18)) was 11 and the “subjects who experienced TEAEs” value ([3]; Group A (N = 18), pyrotinib 400 mg day 1 and pyrotinib + montmorillonite powder day 9) was “eight”. The “severity of TEAEs” value ([3]; Group A, all TEAEs) was “mild (Grade 1)”, the “incidence of each other TEAE” value ([3]; Group A, hypercholesterolemia, nausea, abdominal distension, ALT elevation, AST elevation, bradycardia, elevated blood bilirubin, upper respiratory tract infection, orthostatic hypotension (each)) was 5.6% and the incidence of hypertriglyceridemia ([4]; Group B) was 22.2%. For the same compound, the incidence of hyperuricemia ([4]; Group B) was 11.1%, the “incidence of oral ulcer” value ([4]; Group B) was 11.1% and the incidence of rash ([4]; Group B) was 11.1%. For the same compound, the serious adverse events ([4]; Group B) was “No serious adverse events”, the “number of treatment-emergent adverse events (TEAEs)” value ([4]; Group B (N = 18)) was 18 and the “subjects who experienced TEAEs” value ([4]; Group B (N = 18), pyrotinib 400 mg day 1 and pyrotinib + loperamide day 9) was 12 subjects. For the same compound, the “incidence of each other TEAE” value ([4]; Group B, nausea, abdominal distension, PR interval prolongation on ECG, increased heart rate, increased total bile acid, headache, dizziness (each)) was 5.6%, the “time to peak concentration” value ([5]; oral 400 mg pyrotinib) was “approximately 5 h” and the elimination half-life [5] was “approximately 18 h”. The “progression-free survival (PFS)” value ([6]; pyrotinib combined with trastuzumab and docetaxel, ref Ma et al., 2023) was 24.3 months, the “incidence of diarrhea grade 3 or higher” value ([6]; pyrotinib group (138/297), ref Ma et al., 2023) was 46% and the incidence of diarrhea ([6]; pyrotinib group (293/297), ref Ma et al., 2023) was 99%. For the same compound, the “hazard ratio (PFS)” value ([6]; pyrotinib vs. placebo, each with trastuzumab and docetaxel, ref Ma et al., 2023) was 0.41 and the duration of diarrhea ([6]; usually, ref Ma et al., 2023) was 2 to 3 days.
In the case of `CN(C)C(=O)C(CCN1CCC(O)(c2ccc(Cl)cc2)CC1)(c1ccccc1)c1ccccc1` [loperamide], the “calculated R1 for reversible inhibition” value (CYP3A4 [7]; CYP3A4) is listed as “less than 1.0001”, the “calculated R1,gut” value (CYP3A4 [7]; based on molecular weight of 477 Dalton, guidance cut off 11) is listed as 1,342.7 and the “median PFS by antidiarrheal used in diarrhea management” value ([6]; ad hoc analysis, ref data on file) is listed as 19.5 months. For the same compound, the IC50 (CYP3A4 [8]) was […], the maximum concentration ([9]; after 4 mg oral administration, ref Niemi et al., 2006) was […] and the bioavailability [9] was 0.3%. For the same compound, the bioavailability ([9]; listed as Loperamide) was “about 0.3%” and the “fraction bound to albumin” value (albumin) was 95%.
